Data reported in ChEMBL document CHEMBL5303304, “EUbOPEN Chemogenomics Library - IncuCyte” (2023).
Several values for one entry are separate records, joined by “and”; a condition that tells them apart may be missing. Identical values can stand only once.

How the values were obtained:
Type in all cases: toxicity, cell-based
HEK-293T = assay: Incucyte cell viability with HEK293T; details: human, 10 µM, compound concentration 10 uM
Fibroblast = assay: Incucyte cell viability with human fibroblast; details: 10 µM, compound concentration 10 uM
U2OS = assay: Incucyte cell viability with U2OS; details: human, 10 µM, compound concentration 10 uM
Note: unitless GR value; below 1 slowed growth and below 0 cell loss.

Structure (SMILES) | Growth Rate (HEK-293T; 0 h, replicate number 2) | Growth Rate (Fibroblast; 0 h, replicate number 2) | Growth Rate (Fibroblast; 12 h, replicate number 2) | Growth Rate (Fibroblast; 24 h, replicate number 1) | Growth Rate (U2OS; 6 h, replicate number 2) | Growth Rate (U2OS; 12 h, replicate number 1) | Growth Rate (U2OS; 12 h, replicate number 2) | Growth Rate (U2OS; 18 h, replicate number 1) | Growth Rate (U2OS; 24 h, replicate number 1) | Growth Rate (HEK-293T; 12 h, replicate number 1) | Growth Rate (HEK-293T; 18 h, replicate number 1) | Growth Rate (HEK-293T; 18 h, replicate number 2) | Growth Rate (HEK-293T; 24 h, replicate number 1) | Growth Rate (HEK-293T; 24 h, replicate number 2) | Growth Rate (Fibroblast; 6 h, replicate number 1) | Growth Rate (Fibroblast; 6 h, replicate number 2) | Growth Rate (Fibroblast; 18 h, replicate number 2) | Growth Rate (Fibroblast; 24 h, replicate number 2) | Growth Rate (U2OS; 0 h, replicate number 1) | Growth Rate (HEK-293T; 12 h, replicate number 2) | other results
Cc1csc(-c2nnc(Nc3ccc(Oc4ncccc4-c4ccnc(N)n4)cc3)c3ccccc23)c1 [AMG-900] | -0.21 | -0.73 | 0.98 | 0.75 | 0.9 | 0.57 | 0.16 | 0.27 | 0.33 | – | – | – | – | – | – | – | – | – | – | – | Growth Rate (HEK-293T; 0 h, replicate number 1): -0.13; Growth Rate (U2OS; 6 h, replicate number 1): 0.79; Growth Rate (U2OS; 18 h, replicate number 2): 0.17; Growth Rate (U2OS; 24 h, replicate number 2): 0.41
CC(C)c1nc2c(c3c1[C@H](c1ccc(C(F)(F)F)cc1)OC31CCOCC1)[C@H](O)CC(C)(C)C2 | -0.1 | – | -0.47 | 0.08 | – | 0.82 | 0.84 | 0.93 | 0.88 | 0.02 | 0.41 | 0.84 | 0.62 | 0.94 | -0.78 | -0.98 | -0.05 | 0.1 | -0.17 | – | Growth Rate (HEK-293T; 6 h, replicate number 1): -0.63; Growth Rate (Fibroblast; 0 h, replicate number 1): -1; Growth Rate (Fibroblast; 12 h, replicate number 1): -0.62; Growth Rate (Fibroblast; 18 h, replicate number 1): -0.17; Growth Rate (U2OS; 6 h, replicate number 1): 0.38
C1CCC(NC2CCCCC2)CC1.Cc1cc(Cl)ccc1S(=O)(=O)NC[C@H]1C2CCC(CC2)[C@@H]1/C=C\CCCC(=O)O | – | -0.12 | 0.97 | – | – | – | – | – | – | – | – | – | – | – | 0.25 | 0.75 | 0.9 | – | – | – | Growth Rate (HEK-293T; 0 h, replicate number 1): 0.61; Growth Rate (U2OS; 18 h, replicate number 2): 0.99
O=C1CN(c2ccccc2F)C(NCCN2CCOCC2)=C1c1nc2cc(Br)ccc2c(=O)[nH]1 | – | -0.37 | – | – | – | 0.85 | 0.96 | 1 | 0.89 | 0.49 | 0.53 | – | 0.74 | 0.88 | – | – | – | – | 0.24 | 1 | Growth Rate (HEK-293T; 6 h, replicate number 1): 0.22; Growth Rate (HEK-293T; 6 h, replicate number 2): 0.74; Growth Rate (U2OS; 6 h, replicate number 1): 0.56; Growth Rate (U2OS; 24 h, replicate number 2): 0.96
O=C(O)c1cc(-c2ccccc2)ccc1O | – | – | 0.44 | – | – | 0.69 | – | 0.88 | 0.87 | – | – | – | – | 0.94 | – | -0.01 | 0.67 | 0.79 | -0.47 | – | Growth Rate (HEK-293T; 0 h, replicate number 1): -0.37; Growth Rate (Fibroblast; 12 h, replicate number 1): 0.95; Growth Rate (Fibroblast; 18 h, replicate number 1): 0.96; Growth Rate (U2OS; 0 h, replicate number 2): -0.88; Growth Rate (U2OS; 6 h, replicate number 1): 0.63
CCS(=O)(=O)c1ccc(OC)c(Nc2ncc(-c3cccc(F)c3)o2)c1 [GW621970X] | – | -0.51 | 0.24 | 0.73 | 0.74 | – | 0.84 | 0.79 | 0.94 | -0.12 | 0.22 | 0.63 | 0.43 | 0.8 | -0.04 | 0.01 | 0.7 | 0.99 | – | 0.2 | Growth Rate (HEK-293T; 6 h, replicate number 1): -0.48; Growth Rate (HEK-293T; 6 h, replicate number 2): -0.44; Growth Rate (Fibroblast; 12 h, replicate number 1): 0.4; Growth Rate (Fibroblast; 18 h, replicate number 1): 0.72; Growth Rate (U2OS; 18 h, replicate number 2): 0.86; Growth Rate (U2OS; 24 h, replicate number 2): 0.77
O=C(Nc1snnc1C(=O)Nc1ccc(N2CCCC2)cc1)c1cncc(C(F)(F)F)c1 | 0.78 | -0.64 | 0.11 | 0.96 | 0.89 | -0.58 | 0.81 | – | – | 0.99 | 0.92 | 0.86 | 0.91 | 0.9 | – | 0.26 | 0.43 | 0.59 | -1 | 0.8 | Growth Rate (HEK-293T; 0 h, replicate number 1): 0.43; Growth Rate (HEK-293T; 6 h, replicate number 2): 0.54; Growth Rate (Fibroblast; 0 h, replicate number 1): -1
CC1=C(C(=O)OCCO)[C@@H](c2ccc(C#N)cc2)NC(=O)N1c1cccc(C(F)(F)F)c1 | – | -0.51 | – | – | – | – | – | – | – | 0.73 | 0.68 | 0.71 | 0.67 | 0.97 | – | – | 0.92 | – | – | 0.75 | Growth Rate (HEK-293T; 6 h, replicate number 1): 0.61; Growth Rate (U2OS; 0 h, replicate number 2): 0.55
Cc1cc(-c2cnc(N)c3c(-c4ccc5scnc5c4)csc23)n(C)n1 | – | – | 0.67 | – | 0.91 | 0.94 | -0.33 | 0.91 | – | -0.15 | 0.02 | – | 0.06 | – | 0.88 | 0.31 | 0.9 | 0.92 | -0.98 | – | Growth Rate (HEK-293T; 6 h, replicate number 1): -0.34; Growth Rate (Fibroblast; 0 h, replicate number 1): -1; Growth Rate (Fibroblast; 12 h, replicate number 1): 0.42; Growth Rate (Fibroblast; 18 h, replicate number 1): 0.91; Growth Rate (U2OS; 0 h, replicate number 2): -0.85
O=C(CCCN1CCC(O)(c2ccc(Cl)cc2)CC1)c1ccc(F)cc1 [HALOPERIDOL] | -0.68 | – | -0.02 | 0.65 | 0.98 | -0.1 | – | – | – | – | – | 0.65 | – | 0.75 | 0.04 | -0.32 | 0.22 | 0.4 | 0.26 | 0.63 | Growth Rate (HEK-293T; 6 h, replicate number 2): 0.42; Growth Rate (Fibroblast; 12 h, replicate number 1): 0.4; Growth Rate (Fibroblast; 18 h, replicate number 1): 0.49; Growth Rate (U2OS; 0 h, replicate number 2): 0.79; Growth Rate (U2OS; 18 h, replicate number 2): 1
CC(C)Oc1ccc(F)c(-c2cnc(N)c(C(=O)Nc3cnccc3N3CCC[C@@H](C(=O)O)C3)n2)c1 | 0.37 | – | – | – | – | – | – | – | 0.84 | -0.19 | -0.11 | -0.06 | -0.01 | 0.05 | -1 | – | 0.97 | 0.61 | – | -0.28 | Growth Rate (HEK-293T; 6 h, replicate number 2): 0.61; Growth Rate (Fibroblast; 0 h, replicate number 1): 0.44; Growth Rate (U2OS; 0 h, replicate number 2): -0.44
Cc1c(NC(=O)COc2ccc(Cl)cc2C(=O)c2cc(F)cc(C(F)(F)F)c2)ccc(C(=O)O)c1F [BI 2540] | 0.89 and 0.62 | -0.2 | 0.54 | 0.87 and 0.99 | -0.88 | 0.64 | – | 0.91 | 0.89 and 0.98 | – | 0.97 | 0.75 | 0.91 | 0.78 | 0.41 | 0.6 | 0.78 | 0.97 | 0.29 | 0.77 | Growth Rate (HEK-293T; 0 h, replicate number 1): 0.45; Growth Rate (HEK-293T; 6 h, replicate number 1): 0.71; Growth Rate (HEK-293T; 6 h, replicate number 2): 0.58; Growth Rate (Fibroblast; 12 h, replicate number 1): 0.77; Growth Rate (Fibroblast; 18 h, replicate number 1): 0.85; Growth Rate (U2OS; 0 h, replicate number 2): 0.41; Growth Rate (U2OS; 6 h, replicate number 1): 0.84
